PubChem BioAssay (NCI)
Where “and” joins values, the source holds several entries; their conditions need not be identical. Identical values can stand only once.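 Growth conditions: 96-well plates. Treatment: test compound, 48 hours, 5 concentrations. Analysis: linear interpolation between bracketing concentrations; unreached endpoints set to highest concentration. GI50: concentration for 50% inhibition of growth. Definition used: TGI = concentration required for complete inhibition of growth.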

What was measured:
Assay in all cases: NCI tumour cell line growth inhibition, 48 h
SF-268 CNS = test system: SF-268 CNS
K-562 leukemia = test system: K-562 leukemia
UO-31 renal = test system: UO-31 renal
SW-620 colon = test system: SW-620 colon
MOLT-4 leukemia = test system: MOLT-4 leukemia
A498 renal = test system: A498 renal
RXF 393 renal = test system: RXF 393 renal
LOX IMVI melanoma = test system: LOX IMVI melanoma
NCI-H23 lung = test system: NCI-H23 lung
NCI-H460 lung = test system: NCI-H460 lung

Structure (SMILES) | GI50 (SF-268 CNS) | TGI (SF-268 CNS) | GI50 (K-562 leukemia) | TGI (K-562 leukemia) | GI50 (UO-31 renal) | TGI (UO-31 renal) | GI50 (SW-620 colon) | TGI (SW-620 colon) | GI50 (MOLT-4 leukemia) | TGI (MOLT-4 leukemia) | GI50 (A498 renal) | TGI (A498 renal) | GI50 (RXF 393 renal) | TGI (RXF 393 renal) | GI50 (LOX IMVI melanoma) | TGI (LOX IMVI melanoma) | GI50 (NCI-H23 lung) | TGI (NCI-H23 lung) | GI50 (NCI-H460 lung) | TGI (NCI-H460 lung)
N#CC1=C(N)NC(=S)NC12Nc1ccccc1N2 | 18.6 µM | > 100 µM | 28.1 µM | > 100 µM | 55.2 µM | > 100 µM | 59.5 µM | > 100 µM | 22.2 µM | > 100 µM | 20 µM | 43.5 µM | > 100 µM | > 100 µM | 80.1 µM | > 100 µM | 36.7 µM | > 100 µM | 28.7 µM | > 100 µM
COc1cc(OC)c(NC(=O)c2cc3ccccc3cc2O)cc1Cl | 3.66 µM | 33.4 µM | 4.42 µM | > 100 µM | 1.71 µM | 8.33 µM | 3.63 µM | 18.8 µM | 3.98 µM | 30.3 µM | 2.15 µM | 5.57 µM | 3.82 µM | 8.51 µM | 2.69 µM | 9.37 µM | 2.38 µM | 7.61 µM | 2.43 µM | 5.82 µM
C=C1C(=O)O[C@@H]2C1C[C@@H](O)C(=C)CC/C=C(\C)CCC[C@H](C)[C@H]2OC(C)=O (some centres not stated) | 11 µM | 30.5 µM | 2.8 µM | 7.76 µM | 5.18 µM | 18.4 µM | 3.81 µM | 13.6 µM | 2.54 µM | 5.9 µM | 15.3 µM | 29.4 µM | 4.15 µM | 20.9 µM | 2.14 µM | 6.07 µM | 3.71 µM | 15 µM | 18.2 µM | 41.4 µM
CC(=O)[C@@]1(O)[C@H](C)C[C@H]2[C@@H]3C=C(C)C4=Cc5c(cnn5-c5ccccc5)C[C@]4(C)[C@H]3[C@@H](O)C[C@@]21C | 2.81 µM | 16.6 µM | 0.659 µM |  | 2.08 µM | 7.03 µM | 1.91 µM | 4.27 µM | 0.842 µM | 8.7 µM | 3.45 µM | 14.7 µM | 1.31 µM | 6.42 µM | 1.69 µM | 4.6 µM | 2.48 µM | 9.96 µM | 1.4 µM | 3.69 µM
CC(=O)Oc1cc2c(OC(C)=O)c(-c3c(C)cc4c(C(C)C)c(OC(C)=O)c(OC(C)=O)cc4c3OC(C)=O)c(C)cc2c(C(C)C)c1OC(C)=O | 6.91 µM and 7.21 µM and 11.7 µM | 39.7 µM and 29 µM and 37.4 µM | 21.3 µM and 6.13 µM and 9.67 µM | 63.1 µM and > 21.4 µM and 25.8 µM | 5.73 µM and 5.67 µM and 11.8 µM | 13.3 µM and 11.9 µM and 33.8 µM | 19.6 µM and 4.74 µM and 9.38 µM | 43.7 µM and 9.61 µM and 22.5 µM | 4.48 µM and 23.6 µM and 6.76 µM | 14.9 µM and > 100 µM and 21.2 µM | 4.91 µM and 4.51 µM and 11.5 µM | 10 µM and 11.7 µM and 37.3 µM | 14 µM and 16.3 µM and 4.05 µM | 30.6 µM and 34.5 µM and 14.9 µM | 4.4 µM and 5.26 µM and 17.3 µM | 8.52 µM and 11.3 µM and 32 µM | 5.06 µM and 5.46 µM and 8.84 µM | 9.63 µM and 9.93 µM and 19.1 µM | 6.16 µM and 6.95 µM and 11.6 µM | 15.3 µM and 17.5 µM and 32.3 µM
NC1=NCCN1CC(=O)O | > 1000 µM | > 10000 µM |  | > 1000 µM | > 10000 µM | > 10000 µM | > 10000 µM | > 10000 µM | > 10000 µM | > 10000 µM | > 10000 µM | > 10000 µM | > 10000 µM | > 10000 µM | > 10000 µM | > 10000 µM | > 10000 µM | > 10000 µM | > 10000 µM | > 10000 µM
CNC(=O)c1cccc2c(Nc3ccc(NS(C)(=O)=O)cc3OC)c3cccc(C)c3nc12 |  | 8.58 µM |  | 4.79 µM |  | 2.89 µM |  | 5.5 µM |  | 0.0512 µM |  | 1.15 µM |  | 3.52 µM |  | 3.17 µM |  | 0.58 µM |  | 0.816 µM
C[n+]1ccc(-c2c3nc(c(-c4cc[n+](C)cc4)c4ccc([n-]4)c(-c4cc[n+](C)cc4)c4nc(c(-c5cc[n+](C)cc5)c5ccc2[n-]5)C=C4)C=C3)cc1.[I-].[Zn+2] | 11 µM | 25.9 µM | 23 µM | 59.8 µM | 17.3 µM | 38.4 µM | 24.1 µM | 45.7 µM | 28.4 µM | > 100 µM | 8.34 µM | 31.3 µM | 3.03 µM | 7.91 µM | 82.9 µM | > 100 µM | 26.8 µM | 59.2 µM | 23.5 µM | 53.5 µM
CC(C)(C)OC(=O)NC(CO)c1cccc(OCc2ccccc2)c1 (configuration not stated) |  | > 100 µM |  | > 100 µM |  | > 100 µM |  | > 100 µM |  | > 100 µM |  | > 100 µM |  | > 100 µM |  | > 100 µM |  | > 100 µM |  | > 100 µM
O=c1oc(=O)c2oc3ccccc3oc1=2 |  | > 100 µM |  | > 100 µM |  | > 100 µM |  | > 100 µM |  | > 100 µM |  | > 100 µM |  | > 100 µM |  | > 100 µM |  | > 100 µM |  | > 100 µM
CC[C@@]1(O)C(=O)OCc2c1cc1n(c2=O)Cc2c-1nc1cc3c(cc1c2C)OCO3 | 0.00108 µM | 0.0136 µM | 0.000488 µM | > 100 µM | < 0.0001 µM | 0.0415 µM | < 0.0001 µM | > 100 µM | < 0.0001 µM |  | 0.000257 µM | 0.0272 µM and 0.0285 µM | 0.000755 µM | 0.141 µM and 0.0175 µM | < 0.0001 µM | 0.0319 µM and 0.0306 µM | < 0.0001 µM | 0.105 µM and 0.0116 µM | < 0.0001 µM | 0.0868 µM and 0.0135 µM
CCS(=O)(=O)Nc1cccc(Nc2c3cccc(C)c3nc3c(C)cccc23)c1OC | 0.98 µM | > 56 µM | 1.55 µM | > 45.3 µM | 0.393 µM | 26 µM | 0.979 µM | > 100 µM | 0.166 µM | 4.23 µM | 0.392 µM | 6.01 µM | 1.98 µM | 13.2 µM | 0.273 µM | > 91.5 µM | 0.653 µM | > 100 µM | 0.104 µM | 4.6 µM
C/C(=C(\c1ccc(OCCN2CCCCCC2)cc1)c1ccc(OC(=O)Cc2ccccc2)cc1)c1ccc(Cl)cc1 | 2.84 µM | 6.11 µM | 0.77 µM | 12.1 µM | 2.08 µM | 4.21 µM | 2.56 µM | 5.25 µM | 3.09 µM | 13.4 µM | 6.35 µM | 16.7 µM | 2.03 µM | 4.45 µM | 2.51 µM | 4.77 µM | 2.81 µM | 7.13 µM | 2.64 µM | 5.2 µM
